Tests used:
[1] = ionizable group of side chain R3 of natural amino acid residue; tabulated as a guide; cited from earlier work
in vitro = conditions: endothelial cells
Description: (§1) In vitro assays were conducted using endothelial cells and smooth muscle cells.
(§2) The cells were then fed again with fresh medium (Endothelial Growth Media, EGM-2 BulletKit, Cambrex) and increasing doses of the test substrates were introduced at the following concentrations: 0.1, 0.5, 1, 2, 8 and 40 ng/ml in triplicate. […] The percent cell viability was then determined at 24, 48 and 72 hours following exposure to the test substances, using a standard ATP assay (ViaLight Plus assay kit, Cambrex).

endothelial cells = assay: In vitro cell culture cytotoxicity, percent cell viability by ATP assay (ViaLight Plus); conditions: 0.1-40 ng/ml Taxol equivalent
Description: as §1, §2

## N[C@@H](CCC(=O)O)C(=O)O [Glutamic acid]
[1]
  pK: 4.07

## N[C@@H](Cc1c[nH]cn1)C(=O)O [Histidine]
[1]
  pK: 6.10

## NCCCC[C@H](N)C(=O)O [Lysine]
[1]
  pK: 10.5

## CC(=O)O[C@H]1C(=O)[C@@]2(C)[C@H]([C@H](OC(=O)c3ccccc3)[C@]3(O)C[C@H](OC(=O)[C@H](O)[C@@H](NC(=O)c4ccccc4)c4ccccc4)C(C)=C1C3(C)C)[C@]1(OC(C)=O)CO[C@@H]1C[C@@H]2O [Taxol, 5β,20-Epoxy-1,2α,4,7β,10β,13α-hexahydroxytax-11-en-9-one 4,10-diacetate 2-benzoate 13-ester with (2R,3S)—N-benzoyl-3-phenylisoserine]
In vitro
  viability at 72 h, 0.1 ng/ml: 126%
  viability at 72 h, 0.5 ng/ml: 123%
  viability at 72 h, 1 ng/ml: 114%
  viability at 72 h, 2 ng/ml: 90%
  viability at 72 h, 8 ng/ml: 38.6%
  viability at 72 h, 40 ng/ml: 15.5%

## CC(=O)O[C@H]1C(=O)[C@@]2(C)[C@H]([C@H](OC(=O)c3ccccc3)[C@]3(O)C[C@H](OC(=O)[C@H](OC(=O)CCC(=O)O)[C@@H](NC(=O)c4ccccc4)c4ccccc4)C(C)=C1C3(C)C)[C@]1(OC(C)=O)CO[C@@H]1C[C@@H]2O [Taxol-SA, Taxol-2′-hemisuccinate]
Endothelial cells
  cytotoxicity to the cells (in words): does not appear to change the cytotoxicity

## N[C@@H](Cc1ccc(O)cc1)C(=O)O [Tyrosine]
[1]
  pK: 10.0
